Assay results: ChEMBL document CHEMBL1141252, “Antitrypanosomal activity of triterpenoids and sterols from the leaves of Strychnos spinosa and related compounds” (J Nat Prod, 2007)
The source made the active and inactive calls. The calls are words filed in the database; no cut-off is given here.

How the values were obtained:
[1] = Cytotoxicity against human lung cancer cells; format: functional, cell-based; conditions: Cancer cell lines
[2] = tested on: J774; test: Cytotoxicity against mouse J774 cells by alamar blue assay; format: cell-based
[3] = Cytotoxicity against mouse leukemic cells; format: functional, cell-based; conditions: Leukemic tumor cell line
[4] = tested on: Trypanosoma brucei brucei; test: Antitrypanosomal activity against Trypanosoma brucei brucei bloodstream trypomastigotes by alamar blue assay; format: functional, organism-based
[5] = Selectivity index, ratio of IC50 for mouse J774 cells to IC50 for Trypanosoma brucei brucei bloodstream trypomastigotes; format: functional
[6] = Cytotoxicity against human colon cancer cells; format: functional, cell-based; conditions: Cancer cell lines
[7] = Cytotoxicity against human leukemia cells; format: functional, cell-based; conditions: Leukemia cell
[8] = tested on: Trypanosoma cruzi; test: Antitrypanosomal activity against South American Trypanosoma cruzi bloodstream trypomastigotes at 21 uM; format: functional
[9] = tested on: Trypanosoma cruzi; test: Antitrypanosomal activity against South American Trypanosoma cruzi bloodstream trypomastigotes at 80.4 uM; format: functional
[10] = tested on: Trypanosoma brucei rhodesiense; test: Antitrypanosomal activity against Trypanosoma brucei rhodesiense bloodstream trypomastigotes; format: functional, organism-based

| SMILES | IC50 [2] [µM] | IC50 [4] [µM] | Ratio IC50 [5] | further results |
| --- | --- | --- | --- | --- |
| C=CC(CC[C@@H](C)[C@H]1CC[C@H]2[C@@H]3CC=C4C[C@@H](O)CC[C@]4(C)[C@H]3CC[C@]12C)(OO)C(C)C (some centres undefined) | 16.4 | 3.2 | 5.2 | IC50 [1]: 0.7 µM; IC50 [3]: 0.7 µM; IC50 [6]: 0.7 µM; IC50 [7]: 0.7 µM |
| C[C@H]1[C@H](C)CC[C@]2(C)CC[C@]3(C)C(=CC[C@@H]4[C@@]5(C)CC[C@H](O)C(C)(C)[C@@H]5CC[C@]43C)[C@H]12 | 128 | 114 | 1.1 |  |
| CC[C@H](CC[C@@H](C)[C@H]1CC[C@H]2[C@@H]3CC=C4C[C@@H](O)CC[C@]4(C)[C@H]3CC[C@]12C)C(C)C [BETA-SITOSTEROL] | > 241 | > 241 |  |  |
| C=C(C)[C@@H]1CC[C@]2(C(=O)O)CC[C@]3(C)[C@H](CC[C@@H]4[C@@]5(C)CC[C@H](O)C(C)(C)[C@@H]5CC[C@]43C)[C@@H]12 [BETULINIC ACID] | 44 | 32.6 | 1.3 |  |
| C=C(C)[C@@H]1CC[C@]2(CO)CC[C@]3(C)[C@H](CC[C@@H]4[C@@]5(C)CC[C@H](O)C(C)(C)[C@@H]5CC[C@]43C)[C@@H]12 [BETULIN] | 67.1 | 8.9 | 7.4 |  |
| C=C(C)[C@@H](CC)CC[C@@H](C)[C@H]1CC[C@H]2[C@@H]3CC=C4C[C@@H](O)CC[C@]4(C)[C@H]3CC[C@]12C [CLEROSTEROL] | > 242 | 130 | >1.9 |  |
| COc1cc2c(c(OC)c1OC)-c1ccc(OC)c(=O)cc1[C@@H](NC(C)=O)CC2 [COLCHICINE] | 0.21 |  |  |  |
| CC1(C)CC[C@]2(CO)CC[C@]3(C)C(=CC[C@@H]4[C@@]5(C)CC[C@H](O)C(C)(C)[C@@H]5CC[C@]43C)[C@@H]2C1 [ERYTHRODIOL] | 50.3 | 12 | 4.2 |  |
| C=C(C)[C@@H]1CC[C@]2(C)CC[C@]3(C)[C@H](CC[C@@H]4[C@@]5(C)CC[C@H](O)C(C)(C)[C@@H]5CC[C@]43C)[C@@H]12 [LUPEOL] | > 234 | 45.3 | >5.2 |  |
| CC1(C)CC[C@]2(C(=O)O)CC[C@]3(C)C(=CC[C@@H]4[C@@]5(C)CC[C@H](O)C(C)(C)[C@@H]5CC[C@]43C)[C@@H]2C1 [OLEANOLIC_ACID] | 130 | 6.4 | 20.6 | Activity [8]: 50%; Activity [9]: 50% |
| C=CC(O)(CC[C@@H](C)[C@H]1CC[C@H]2[C@@H]3CC=C4C[C@@H](O)CC[C@]4(C)[C@H]3CC[C@]12C)C(C)C (some centres undefined) [SARINGOSTEROL] | > 233 | 7.8 | >30.3 |  |
| CC[C@H](CC[C@@H](C)[C@H]1CC[C@H]2[C@@H]3CC[C@H]4C[C@@H](O)CC[C@]4(C)[C@H]3CC[C@]12C)C(C)C [STIGMASTANOL] | > 240 | > 240 |  |  |
| CC[C@H](/C=C/[C@@H](C)[C@H]1CC[C@H]2[C@@H]3CC=C4C[C@@H](O)CC[C@]4(C)[C@H]3CC[C@]12C)C(C)C [STIGMASTEROL] | > 242 | 135 | >1.8 |  |
| Cc1ccc(C(=O)Nc2ccc(S(=O)(=O)O)c3cc(S(=O)(=O)O)cc(S(=O)(=O)O)c23)cc1NC(=O)c1cccc(NC(=O)Nc2cccc(C(=O)Nc3cc(C(=O)Nc4ccc(S(=O)(=O)O)c5cc(S(=O)(=O)O)cc(S(=O)(=O)O)c45)ccc3C)c2)c1 [SURAMIN] |  | 0.041 |  |  |
| C[C@H]1[C@H](C)CC[C@]2(C(=O)O)CC[C@]3(C)C(=CC[C@@H]4[C@@]5(C)CC[C@H](O)C(C)(C)[C@@H]5CC[C@]43C)[C@H]12 [URSOLIC ACID] | 13.1 | 2.2 | 6 | Activity [8]: 50%; Activity [9]: 50% |
| C[C@H]1[C@H](C)CC[C@]2(CO)CC[C@]3(C)C(=CC[C@@H]4[C@@]5(C)CC[C@H](O)C(C)(C)[C@@H]5CC[C@]43C)[C@H]12 [UVAOL] | 156 | 27.8 | 5.6 |  |
| CC1(C)CC[C@]2(C)CC[C@]3(C)C(=CC[C@@H]4[C@@]5(C)CC[C@H](O)C(C)(C)[C@@H]5CC[C@]43C)[C@@H]2C1 [beta-AMYRIN] | > 234 | 127 | >1.8 | Activity [10]: inactive |
